# Source: patent US20130109017A1, “MULTIPLE MYELOMA PROGNOSIS AND TREATMENT” (University of Utah Research Foundation, priority 2010, published 2013)
# Assays:
# 5TGM1 myeloma cells = assay: 5TGM1 myeloma cell proliferation; format: cell-based, mouse; details: for 5TGM1 cell growth compared to controls: once a day, FIG. 2
# Experimental: Blood. 93: 1697-1706 (1999). 5TGM1 cells were grown in Hyclone classical liquid media RPMI 1640 (Thermo Scientific Hyclone, Logan, Utah) supplemented with heat-inactivated fetal bovine serum (Thermo Scientific Hyclone, Logan, Utah) and 1% penicillin-streptomycin solution (GIBCO, Grand Island, N.Y.) at 37° C. in 5% CO2. Additionally, two bortezomib-resistant MM cell lines, RPMI 8226 and ARP1, were generated via a stepwise increase in bortezomib (velcade) concentration.
# Initially, 5TGM1 myeloma cells were seeded in 24-well plates (10^5 cells/mL) using RPMI-1640, supplemented with 2% FBS, in the presence or absence of bortezomib (velcade), PTH, and/or {[TYR^34]bPTH-(7-34)}.
# [1] = tested on: 5TGM1/C57BL/KaLwRij mouse myeloma model; assay: Overall survival of 5TGM1/C57BL/KaLwRij myeloma mice; format: in vivo
# Experimental: Blood. 114 Abstract 2865 (2009). […] Control animals received injections of PBS.
# In this regard, the anti-PTH compound, {[TYR^34]bPTH-(7-34)}, was also tested in the presence or absence of bortezomib and PTH to determine whether myeloma growth and/or bone formation were affected. Similar experiments were performed using carfilzomib as shown below.
# C57BL/KaLwRij mice (n=5) were subcutaneously injected carfilzomib (1.5 mg/kg) twice a week. The anti-PTH compound (500 μg/kg) was also administered to the mice 3 days prior and 1 day prior to carfilzomib treatment, where noted. Tumor burden was monitored by measuring IgG2b serum concentration twice a week.
# [2] = tested on: bortezomib-resistant RPMI 8226 MM cell line; assay: IC50 of bortezomib in bortezomib-resistant RPMI 8226 cells; format: cell-based; details: RPMI8226 bortezomib-resistant cells
# Experimental: 5TGM1 myeloma cells (Noboru et al., A multiresponse parathyroid hormone assay: an inhibitor has agonist properties in vivo. American Physiological Society. E589-95 (1983)) were initially derived from the myeloma cell line 5T33, which were obtained from C57BL/KaLwRij mice. See Dallas et al., Ibandronate Reduces Osteolytic Lesions but not Tumor Burden in a Murine Model of Myeloma Bone Disease. Blood. 93: 1697-1706 (1999). 5TGM1 cells were grown in Hyclone classical liquid media RPMI 1640 (Thermo Scientific Hyclone, Logan, Utah) supplemented with heat-inactivated fetal bovine serum (Thermo Scientific Hyclone, Logan, Utah) and 1% penicillin-streptomycin solution (GIBCO, Grand Island, N.Y.) at 37° C. in 5% CO2. Additionally, two bortezomib-resistant MM cell lines, RPMI 8226 and ARP1, were generated via a stepwise increase in bortezomib (velcade) concentration.
# [3] = tested on: 5TGM1/C57BL/KaLwRij mouse myeloma model; assay: Serum IgG2b level in 5TGM1/C57BL/KaLwRij myeloma mice; details: bortezomib 1 mg/kg, PTH 80 μg/kg; p=0.017, p=0.029, p=0.017 respectively; FIG. 7
# Experimental: A preclinical myeloma model was employed to examine the effects of PTH and bortezomib (velcade) on proteasome activity with respect to bone remodeling and MM pathogenesis. As such, myelomatous C57BL/KaLwRij mice were injected with 5TGM1 multiple myeloma cells as described. […] Briefly, 5TGM1 inoculation cultures were harvested, centrifuged, washed twice in 50 mL phosphate-buffered saline (PBS), and resuspended at 5×10^6 cells per mL of PBS. Experimental mice were injected with 100 μl of inoculation culture via tail vein injection using a 27-gauge needle. Control animals received injections of PBS.
# Each experimental group included 5 mice, and one week after 5TGM1 cell injection, bortezomib, PTH, and/or {[TYR^34]bPTH-(7-34)} were administered in various combinations. The following groups, each containing five mice, were analyzed: untreated controls; bortezomib-treated mice; PTH treated mice; PTH and bortezomib treated mice; and 5{[TYR^34]bPTH-(7-34)} and bortezomib treated mice.
# In accord with the experimental procedure outline above, bortezomib (velcade), at a concentration of 1 mg/kg, was administered to the mice via intraperitoneal injection alone, or in combination with PTH or the anti-PTH compound, twice a week (FIG. 6). PTH was added in a similar fashion, once-daily, alone, or in combination with bortezomib, at a concentration of 80 μg/kg. […]
molecule,measurement,setting,value
"{[TYR^34]bPTH-(7-34)} (FMHNLGKHLSSMERVEWLRKKLQDVHNY; Parathyroid hormone; UniProt P01268 38-65, looked up, variant F34Y) [anti-PTH, analog of PTH, antagonist of PTH]",effect on 5TGM1 cell survival,"5TGM1 myeloma cells; anti-PTH alone at 100 nM, 500 nM and 1 μM, p=0.1, FIG. 3",did not have an effect
CC(C)C[C@H](NC(=O)[C@H](CCc1ccccc1)NC(=O)CN1CCOCC1)C(=O)N[C@@H](Cc1ccccc1)C(=O)N[C@@H](CC(C)C)C(=O)[C@@]1(C)CO1 [carfilzomib],survival compared to controls,"[1]; carfilzomib 1.5 mg/kg subcutaneous twice a week, p=0.012, FIG. 8",increased survival
CC(C)C[C@H](NC(=O)[C@H](Cc1ccccc1)NC(=O)c1cnccn1)B(O)O [bortezomib],5TGM1 cell proliferation compared to controls,"5TGM1 myeloma cells; bortezomib alone at 5 nM or 10 nM, every other day, p=0.01 at 5 nM, p=0.001 at 10 nM, FIG. 1",concentration dependent reduction in 5TGM1 cell proliferation
same,IC50,[2],250 nM
same,increased survival versus control mice,[1]; bortezomib 1 mg/kg intraperitoneal twice a week,40%
same,maximum survival,"[1]; bortezomib 1 mg/kg intraperitoneal twice a week, control mice maximum five weeks",up to seven
same,survival compared to controls,"[1]; bortezomib 1 mg/kg intraperitoneal twice a week, p=0.044, FIG. 6",prolonged survival
same,survival compared to mice treated with bortezomib and the anti-PTH compound,"[1]; bortezomib 1 mg/kg, PTH 80 μg/kg, p=0.044 (bortezomib), p=0.047 (bortezomib and PTH)",significantly longer period of time
same,serum IgG level compared to controls,[3],significant inhibition
"parathyroid hormone (peptide, UniProt P01270 32-115, looked up, Parathyroid hormone, 84 amino acid polypeptide secreted by the parathyroid glands) Parathyroid hormone: SVSEIQLMHNLGKHLNSMERVEWLRKKLQDVHNFVALGAPLAPRDAGSQRPRKKEDNVLVESHEKSLGEADKADVNVLTKAKSQ",5TGM1 cell growth compared to controls,"5TGM1 myeloma cells; PTH alone 10 nM, p=0.1",not a significant difference
same,5TGM1 cell growth compared to controls,"5TGM1 myeloma cells; PTH alone 50 nM, p=0.001",statistically significant decrease in cell growth
same,5TGM1 cell growth compared to controls,"5TGM1 myeloma cells; PTH alone 100 nM, p=0.001",statistically significant decrease in cell growth
same,serum IgG level compared to controls,[3],significant inhibition
